Eight molecules from PMC7763114, “Synthesis and pharmacological effects of novel benzenesulfonamides carrying benzamide moiety as carbonic anhydrase and acetylcholinesterase inhibitors” (Turkish Journal of Chemistry, 2020) can be followed below.

The term IC50 denotes the concentration that inhibits the measured activity by half. A high value points to weaker potency in that assay. The Ki is a measure of affinity in units of concentration, obtained from inhibition or displacement.

Common to all, as to assay type: biochemical
One test concerns the target hCA I (Homo sapiens, UniProt P00915). The experiment in a line: biochemical. Particulars: for Ki: Lineweaver–Burk plots, three concentrations. The protocol:
(§1) CA isoenzymes (CA I and CA II) were purified using a Sepharose-4B-L tyrosine-sulphanilamide affinity chromatography. Activities of CA isoenzymes were determined according to method by Verpoorte et al.. […] The experimental procedure was given in detail in our previous papers. SSpectrophotometry-based Ellman’s method was used to test the compounds’ AChE inhibitory effects. Acetylthiocholine iodide (AChI) was used as a substrate of the reaction. 5,5-dithiobis(2-nitro-benzoic acid) (DTNB) was used for the determination of the AChE activities. An activity (%)-[Compound] graph was drawn to calculate the inhibition effects of the compounds on CAs and AChE. The IC50 values were obtained from activity (%) versus compounds plots. Three different concentrations were used to calculate Ki values. The Lineweaver–Burk plots were drawn, and calculations were realized as described.

A further test has as its target hCA II (Homo sapiens, UniProt P00918). The experiment in a line: biochemical. The settings on record: for Ki: Lineweaver–Burk plots, three concentrations. The procedure: as §1
The next test addresses AChE (Electrophorus electricus, UniProt O42275). The test can be described thus: AChE inhibition (Ellman's method). Particulars: in terms of Ki value. The procedure:
as §1

“And” between values parts separate entries of the source, which are not always exact repeats. Equal values may be shown once.

Sequence of hCA I (P00915 whole entry): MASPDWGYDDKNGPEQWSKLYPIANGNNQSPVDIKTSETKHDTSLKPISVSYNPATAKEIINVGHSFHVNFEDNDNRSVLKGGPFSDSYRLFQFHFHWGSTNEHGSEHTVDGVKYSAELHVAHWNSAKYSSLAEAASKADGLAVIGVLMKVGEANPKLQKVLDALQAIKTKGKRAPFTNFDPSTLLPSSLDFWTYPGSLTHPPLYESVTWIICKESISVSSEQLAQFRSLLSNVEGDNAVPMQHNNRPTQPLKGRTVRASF
Sequence of AChE (O42275 24-633): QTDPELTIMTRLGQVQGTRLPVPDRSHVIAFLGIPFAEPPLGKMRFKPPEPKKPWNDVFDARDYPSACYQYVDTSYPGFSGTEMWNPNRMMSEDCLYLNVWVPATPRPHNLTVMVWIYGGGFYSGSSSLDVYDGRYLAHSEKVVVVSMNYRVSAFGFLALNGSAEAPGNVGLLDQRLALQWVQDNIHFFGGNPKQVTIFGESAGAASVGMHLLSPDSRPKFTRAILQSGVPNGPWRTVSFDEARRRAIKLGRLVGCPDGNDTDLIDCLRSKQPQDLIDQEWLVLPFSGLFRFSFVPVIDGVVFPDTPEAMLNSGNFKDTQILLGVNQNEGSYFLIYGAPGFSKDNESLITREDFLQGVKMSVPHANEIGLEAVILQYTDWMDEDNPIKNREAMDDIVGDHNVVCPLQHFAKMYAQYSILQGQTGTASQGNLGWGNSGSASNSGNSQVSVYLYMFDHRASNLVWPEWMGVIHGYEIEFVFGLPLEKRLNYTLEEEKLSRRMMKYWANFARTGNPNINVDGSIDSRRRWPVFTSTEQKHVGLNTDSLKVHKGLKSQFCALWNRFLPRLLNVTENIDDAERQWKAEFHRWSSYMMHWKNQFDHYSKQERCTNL

Consider `COc1ccc(/C=C(\NC(=O)c2ccccc2)C(=O)Nc2ccc(S(=O)(=O)Nc3nccc(C)n3)cc2)cc1` [3f], for which, at hCA I, half-maximal inhibition (IC50) required 28.9 nM and the Ki amounted to 11.3 ± 1.7 nM. Moreover, at hCA I (based on Ki values), the “times more potent than AZA toward hCA I” value was 2.7 ×. On hCA II, this molecule returned an IC50 of 24.8 nM and a Ki of 21.4 ± 3.47 nM. In addition, on AChE, the “times more potent than 3e on AChE” value amounted to 3.8 × and the “times more potent than 3g on AChE” value was 1.5 ×.

Consider `COc1ccc(/C=C(\NC(=O)c2ccccc2)C(=O)Nc2ccc(S(=O)(=O)Nc3nc(C)cc(C)n3)cc2)cc1` [3g], for which, on hCA I, the IC50 is 21 nM and the Ki turned out to be 4.07 ± 0.38 nM. On hCA I (based on Ki values), the “times more potent than 3e on hCA I” value is 2 ×, the “times more potent than AZA toward hCA I” value came out at 7.5 × and the “times more potent than compound 2 on hCA I” value was found to be 12.4 ×. At hCA II, this molecule had an IC50 of 26.7 nM and a Ki of 14.9 ± 3.1 nM. For the same molecule, on hCA II (based on Ki values), the “times more potent than AZA toward hCA II” value stood at 1.5 ×.

As for `COc1ccc(/C=C(\NC(=O)c2ccccc2)C(=O)Nc2ccc(S(=O)(=O)Nc3ncccn3)cc2)cc1` [3e], at hCA I, the IC50 amounted to 25.7 nM and affinity was put at a Ki of 8.02 ± 0.88 nM. At hCA I (based on Ki values), the “times more potent than AZA toward hCA I” value is 3.8 ×. Also, at hCA II, the IC50 is 25.7 nM and the affinity, expressed as Ki, was 37.2 ± 7.55 nM.

For `COc1ccc(/C=C(\NC(=O)c2ccccc2)C(=O)Nc2ccc(S(=O)(=O)NC(C)=O)cc2)cc1` [3a], at hCA I, it took 27.7 nM to reach half-maximal inhibition (IC50) and the Ki was 17.6 ± 4.72 nM. Moreover, the “times more potent than AZA toward hCA I” value at hCA I (based on Ki values) came out at 1.7 ×. Moreover, at hCA II, half-maximal inhibition (IC50) required 20.4 nM and the Ki was found to be 18.7 ± 1.59 nM. At hCA II (based on Ki values), the “times more potent than AZA toward hCA II” value was 1.2 ×.

`COc1ccc(/C=C(\NC(=O)c2ccccc2)C(=O)Nc2ccc(S(=O)(=O)NC(=N)N)cc2)cc1` [3b]: on hCA I, half-maximal inhibition (IC50) required 19.8 nM and the Ki amounted to 29.7 ± 3.18 nM. Further, on hCA II, inhibition was half-maximal at 24.8 nM (IC50) and the Ki was found to be 12.6 ± 2.54 nM. At hCA II (based on Ki values), the “times more potent than AZA toward hCA II” value was found to be 1.8 ×.

On to `COc1ccc(C=C2N=C(c3ccccc3)OC2=O)cc1` [compound 2, 4-(4-methoxybenzylidene)-2-phenyloxazol-5(4H)-one], for which, at hCA I, half-maximal inhibition (IC50) required 40.8 nM and the Ki came to 50.3 ± 1.59 nM. For the same molecule, at hCA II, the IC50 is 46.2 nM and the Ki was 62.5 ± 11.5 nM.

With `COc1ccc(/C=C(\NC(=O)c2ccccc2)C(=O)Nc2ccc(S(=O)(=O)Nc3nccs3)cc2)cc1` [3d], on hCA I, half-maximal inhibition (IC50) was put at 22.4 nM and affinity was put at a Ki of 9.16 ± 0.46 nM. Besides, the “times more potent than AZA toward hCA I” value at hCA I (based on Ki values) is given as 3.3 ×. At hCA II, this molecule registered an IC50 of 21 nM and a Ki of 16.9 ± 3.76 nM. Besides, the “times more potent than AZA toward hCA II” value on hCA II (based on Ki values) was 1.3 ×.

Take `COc1ccc(/C=C(\NC(=O)c2ccccc2)C(=O)Nc2ccc(S(N)(=O)=O)cc2)cc1` [3c]: at hCA I, the midpoint of inhibition, the IC50, lay at 20.4 nM and affinity was put at a Ki of 6.33 ± 0.51 nM. Further, the “times more potent than AZA toward hCA I” value at hCA I (based on Ki values) is on record as 4.8 ×. Further, at hCA II, the midpoint of inhibition, the IC50, lay at 30.1 nM and the Ki was determined as 10.7 ± 0.98 nM. At hCA II (based on Ki values), the “times more potent than AZA toward hCA II” value was 2.1 × and 2 ×; the “times more potent than compound 2 on hCA II” value was 5.8 ×.
